Experimental data published in patent US9034887B2, “Dihydroorotate dehydrogenase as antifungal drug target and quinazolinone-based inhibitors thereof” (F2G Limited, priority 2008, dated 2015).
In brackets after ≈: the same amount, converted by molar mass.

Tests used:
[1] = target: T1, Recombinant DHODH from human (Homo sapiens, UniProt Q02127); experiment: DHODH inhibition screen (DCIP reduction, 600 nm), human enzyme; type: biochemical; conditions: Table 3, read-out: IC50 values for Compound Examples 1 to 15 identified from screens, Human
T1 construct: His-tag; NusA (Nus-tag) fusion of vector pET43.1 (own knowledge of the vector) (N); made in house; host or cells: E. coli BL21 DE3
Protocol: (§1) 1. The following buffer and stock solution were prepared:
Coenzyme Q2 (Sigma) was dissolved in DMSO to give a concentration of 10 mg/ml. […] The stock solution was made with 127.36 μl DHO, 127.36 μl DCIP and 318.4 μl Coenzyme Q2, made up to 80 ml with Buffer A. Final concentrations in assay wells were; DHO, 500 μM; Coenzyme Q, 50 μM; DCIP, 100 μM.
2. […] Duplicate sets of plates were used such that one set received enzyme while a control set received no enzyme.
3. […] Then 20 μl of DHODH solution was added to all the +enzyme plates and 20 μl of Buffer A was added to all the control −enzyme plates.
(§2) 4. 20 μl of DHO/Coenzyme Q2/DCIP solution was added to all the wells, after which plates were incubated at room temperature for […] and then read on a Tecan Safire spectrophotometer at 600 nm.
Recombinant DHODH from human or C. albicans was assayed in the same way. It is necessary to adjust the enzyme concentration and reaction time to take into account variations in activity of enzyme batches, thus the incubation time was 20 minutes for the C. albicans enzyme and 34 minutes for the human enzyme.

[2] = target: Recombinant A. fumigatus DHODH (Aspergillus fumigatus, UniProt Q4X169); experiment: DHODH inhibition screen (DCIP reduction, 600 nm), A. fumigatus enzyme; type: biochemical
Protocol: as §1
Buffer A: 62.5 mM TrisHCl (pH8.0), 150 mM NaCl, 10% v/v glycerol
DHO/Coenzyme Q2/DCIP solution: 19.848 mg dihydroorotate (DHO; Sigma) was dissolved in 160 μl DMSO. Coenzyme Q2 (Sigma) was dissolved in DMSO to give a concentration of 10 mg/ml. 7.236 mg 2,6-dichloroindophenol (DCIP; Sigma) was dissolved in 160 μl DMSO. The stock solution was made with 127.36 μl DHO, 127.36 μl DCIP and 318.4 μl Coenzyme Q2, made up to 80 ml with Buffer A. Final concentrations in assay wells were; DHO, 500 μM; Coenzyme Q, 50 μM; DCIP, 100 μM.
2. Compounds were aliquotted into 384-well microtitre plates at a range of dilutions to give final concentrations in the assay of […]. Duplicate sets of plates were used such that one set received enzyme while a control set received no enzyme. Since compounds are frequently dissolved in DMSO or a DMSO/water mixture, assays were set up to give a final concentration of 1% (v/v) DMSO in wells.
3. Recombinant A. fumigatus DHODH was suspended in Buffer A to give a concentration of 1435.8 ng protein in 20 μl. Then 20 μl of DHODH solution was added to all the +enzyme plates and 20 μl of Buffer A was added to all the control −enzyme plates.
as §2
Recombinant DHODH from human or C. albicans was assayed in the same way. It is necessary to adjust the enzyme concentration and reaction time to take into account variations in activity of enzyme batches, thus the incubation time was 20 minutes for the C. albicans enzyme and 34 minutes for the human enzyme. Compounds are screened against a fungal and human enzyme to identify compounds which are selective for the fungal enzyme.

Aspergillus flavus [3] = experiment: MIC in YAG medium, A. flavus; type: cell-based; conditions: 24 hrs at 35° C., >70% growth inhibition, read-out: MIC grade, A. flavus
Protocol: (§3) Between 1 and 5 mgs of compound were accurately weighed out into a sterile Eppendorf tube. The compound was dissolved in DMSO to give a solution containing 5 mg/mL. Tubes were stored at −20° C. until required.
(§4) On the day of testing thawed solutions were vortex mixed to ensure homogeneity. 30 μL of solution was removed and added to 570 μL of sterile water in a separate sterile Eppendorf. The thoroughly mixed solution was used to prepare a series of doubling dilutions in water, in a deep well plate. Thirteen replicate plates were prepared using a Minitrak by aspirating 20 μL from each well into eleven clear polystyrene 96 well plates.
(§5) Spores of Aspergillus spp. (Aspergillus fumigatus [two strains], Aspergillus terreus [two strains], Aspergillus niger and Aspergillus flavus) were harvested from cultures grown on Sabarauds agar for 5 days, and resuspended in PBS/Tween 80 to approx 1×10^7 cfu/mL. Each organism suspension was diluted in YAG medium (1% glucose, 1% ammonium chloride and 0.5% yeast extract) to 0.5-2×10^4 cfu/mL. 80 μL of an organism suspension was added to each well of the plate containing drug dilutions.
(§6) All plates were incubated for 24 hrs at 35° C. Growth was assessed by monitoring the optical density at 485 nm for each well. The MIC of a compound is the lowest drug concentration that inhibits growth of an organism by >70% compared with a drug free control. MICs are recorded as mg/L. In cases where the MIC of an organism is […] the MIC is repeated using a concentration range of 0.5-0.0005 mg/L.

Aspergillus fumigatus = experiment: MIC in YAG medium, A. fumigatus; type: cell-based; conditions: 24 hrs at 35° C., >70% growth inhibition, read-out: MIC grade, A. fumigatus
Protocol: as §3, §4, §5, §6

A. fumigatus 210 = experiment: MIC in YAG medium, A. fumigatus 210; type: cell-based; conditions: Aspergillus fumigatus, 24 hrs at 35° C., >70% growth inhibition, read-out: MIC grade, A. fumigatus 210
Protocol: as §3, §4, §5, §6

Aspergillus niger [4] = experiment: MIC in YAG medium, A. niger; type: cell-based; conditions: 24 hrs at 35° C., >70% growth inhibition, read-out: MIC grade, A. niger
Protocol: as §3, §4, §5, §6

Aspergillus terreus = experiment: MIC in YAG medium, A. terreus; type: cell-based; conditions: 24 hrs at 35° C., >70% growth inhibition, read-out: MIC grade, A. terreus
Protocol: as §3, §4, §5, §6

A. terreus 49 = experiment: MIC in YAG medium, A. terreus 49; type: cell-based; conditions: Aspergillus terreus, 24 hrs at 35° C., >70% growth inhibition, read-out: MIC grade, A. terreus 49
Protocol: as §3, §4, §5, §6

Aspergillus flavus [5] = experiment: MIC in RPMI medium, A. flavus; type: cell-based; conditions: 24-48 hrs at 35° C., >80% growth inhibition, read-out: MIC grade, A. flavus
Protocol: as §3, §4
(§7) Assays were also performed in RPMI medium. To perform MIC tests in this medium, dilutions of compounds are prepared in microtitre plates as described above. Fungal strains to be tested are grown and harvested in an identical manner to that described above, and each organism suspension was diluted in RPMI medium, containing 2% glucose and 0.135 M MOPS buffer (pH 7.0) to 0.5-2×10^4 cfu/mL, rather than in YAG medium. 80 μL of an organism suspension was added to each well of the plate containing drug dilutions.
(§8) All plates were incubated for 24-48 hrs at 35° C. Growth was assessed by monitoring the optical density at 485 nm for each well. […] The following organisms were tested: Aspergillus flavus, Aspergillus fumigatus AF293 and AF210, Aspergillus niger and Aspergillus terreus AT4 and AT49.

[6] = system: Aspergillus fumigatus AF293; experiment: MIC in RPMI medium, A. fumigatus; type: cell-based; conditions: 24-48 hrs at 35° C., >80% growth inhibition, read-out: MIC grade, A. fumigatus
Protocol: as §3, §4, §7, §8

[7] = system: Aspergillus fumigatus AF210; experiment: MIC in RPMI medium, A. fumigatus 210; type: cell-based; conditions: 24-48 hrs at 35° C., >80% growth inhibition, read-out: MIC grade, A. fumigatus 210
Protocol: as §3, §4, §7, §8

Aspergillus niger [8] = experiment: MIC in RPMI medium, A. niger; type: cell-based; conditions: 24-48 hrs at 35° C., >80% growth inhibition, read-out: MIC grade, A. niger
Protocol: as §3, §4, §7, §8

Aspergillus terreus AT4 = experiment: MIC in RPMI medium, A. terreus; type: cell-based; conditions: 24-48 hrs at 35° C., >80% growth inhibition, read-out: MIC grade, A. terreus
Protocol: as §3, §4, §7, §8

Aspergillus terreus AT49 = experiment: MIC in RPMI medium, A. terreus 49; type: cell-based; conditions: 24-48 hrs at 35° C., >80% growth inhibition, read-out: MIC grade, A. terreus 49
Protocol: as §3, §4, §7, §8

T1 sequence (Q02127 31-395 limits assumed): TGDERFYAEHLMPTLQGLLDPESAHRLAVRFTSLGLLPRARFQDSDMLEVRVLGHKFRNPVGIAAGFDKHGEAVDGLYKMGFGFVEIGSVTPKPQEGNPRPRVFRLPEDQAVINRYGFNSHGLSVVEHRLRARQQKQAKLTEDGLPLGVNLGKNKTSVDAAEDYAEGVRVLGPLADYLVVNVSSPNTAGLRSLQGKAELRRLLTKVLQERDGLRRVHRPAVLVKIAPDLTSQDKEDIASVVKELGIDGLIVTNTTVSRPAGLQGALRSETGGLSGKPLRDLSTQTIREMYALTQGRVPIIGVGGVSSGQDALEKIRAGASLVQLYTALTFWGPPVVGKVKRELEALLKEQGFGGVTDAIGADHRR
Recombinant A. fumigatus DHODH, sequence (Q4X169 entry or part of it): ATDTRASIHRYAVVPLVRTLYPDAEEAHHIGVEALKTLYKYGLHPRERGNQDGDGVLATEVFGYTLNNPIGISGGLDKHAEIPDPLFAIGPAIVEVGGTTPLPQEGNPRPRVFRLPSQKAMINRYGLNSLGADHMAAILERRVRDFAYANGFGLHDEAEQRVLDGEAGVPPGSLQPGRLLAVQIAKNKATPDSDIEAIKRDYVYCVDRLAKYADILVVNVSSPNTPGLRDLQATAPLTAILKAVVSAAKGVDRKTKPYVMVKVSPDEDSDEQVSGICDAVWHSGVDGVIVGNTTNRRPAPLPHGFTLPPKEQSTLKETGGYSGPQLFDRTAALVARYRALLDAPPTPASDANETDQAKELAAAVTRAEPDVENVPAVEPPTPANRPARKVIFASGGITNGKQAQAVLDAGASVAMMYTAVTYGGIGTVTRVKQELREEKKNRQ

| Structure (SMILES) | IC50 [1] [µM] | IC50 [2] [µM] | MIC (Aspergillus flavus [3]) [µg/mL] | MIC (Aspergillus fumigatus) [µg/mL] | MIC (A. fumigatus 210) [µg/mL] | MIC (Aspergillus niger [4]) [µg/mL] | MIC (Aspergillus terreus) [µg/mL] | MIC (A. terreus 49) [µg/mL] | MIC (Aspergillus flavus [5]) [µg/mL] | MIC [6] [µg/mL] | MIC [7] [µg/mL] | MIC (Aspergillus niger [8]) [µg/mL] | MIC (Aspergillus terreus AT4) [µg/mL] | MIC (Aspergillus terreus AT49) [µg/mL] |
| --- | --- | --- | --- | --- | --- | --- | --- | --- | --- | --- | --- | --- | --- | --- |
| COc1ccc2nc(SC(C)C)n(-c3ccccc3OC)c(=O)c2c1 [Compound Example 10, 2-Isopropylsulfanyl-6-methoxy-3-(2-methoxy-phenyl)-3H-quinazolin-4-one] | 50.2 | 19.6 | > 10 | 1 to 10 (≈ 2.81 to 28.1 µM) | 1 to 10 (≈ 2.81 to 28.1 µM) | < 1 | 1 to 10 (≈ 2.81 to 28.1 µM) | < 1 | > 10 | > 10 | > 10 | 1 to 10 (≈ 2.81 to 28.1 µM) | > 10 | > 10 |
| CC(C)Sc1nc2ccccc2c(=O)n1-c1ccccc1N(C)C [Compound Example 11, 3-(2-Dimethylamino-phenyl)-2-isopropylsulfanyl-3H-quinazolin-4-one] | 118 | 21.2 | > 10 | 1 to 10 (≈ 2.95 to 29.5 µM) | 1 to 10 (≈ 2.95 to 29.5 µM) | 1 to 10 (≈ 2.95 to 29.5 µM) | 1 to 10 (≈ 2.95 to 29.5 µM) | 1 to 10 (≈ 2.95 to 29.5 µM) | > 10 | 1 to 10 (≈ 2.95 to 29.5 µM) | > 10 | 1 to 10 (≈ 2.95 to 29.5 µM) | > 10 | > 10 |
| CCSc1nc2ccccc2c(=O)n1-c1ccccc1CC [Compound Example 13, 3-(2-Ethyl-phenyl)-2-ethylsulfanyl-3H-quinazolin-4-one] | 86.1 | 36.2 | > 10 | 1 to 10 (≈ 3.22 to 32.2 µM) | 1 to 10 (≈ 3.22 to 32.2 µM) | < 1 | 1 to 10 (≈ 3.22 to 32.2 µM) | 1 to 10 (≈ 3.22 to 32.2 µM) | > 10 | 1 to 10 (≈ 3.22 to 32.2 µM) | > 10 | 1 to 10 (≈ 3.22 to 32.2 µM) | > 10 | > 10 |
| CCSc1nc2cccc(C)c2c(=O)n1-c1ccccc1OC [Compound Example 14, 2-Ethylsulfanyl-3-(2-methoxy-phenyl)-5-methyl-3H-quinazolin-4-one] | 32.1 | 43.7 | 1 to 10 (≈ 3.06 to 30.6 µM) | < 1 | < 1 | < 1 | < 1 | < 1 | > 10 | 1 to 10 (≈ 3.06 to 30.6 µM) | 1 to 10 (≈ 3.06 to 30.6 µM) | < 1 | > 10 | 1 to 10 (≈ 3.06 to 30.6 µM) |
| CCc1ccccc1-n1c(SC(C)C)nc2ccccc2c1=O [Compound Example 9, 3-(2-Ethyl-phenyl)-2-isopropylsulfanyl-3H-quinazolin-4-one] | 123 | 17.7 | > 10 | < 1 | < 1 | < 1 | 1 to 10 (≈ 3.08 to 30.8 µM) | < 1 | > 10 | < 1 | > 10 | < 1 | > 10 | > 10 |
| CCSc1nc2cc(C)ccc2c(=O)n1-c1ccccc1OC [Compound Example 5, 2-Ethylsulfanyl-3-(2-methoxy-phenyl)-7-methyl-3H-quinazolin-4-one] | 15.5 | 5.4 | < 1 | < 1 | < 1 | < 1 | < 1 | < 1 | > 10 | 1 to 10 (≈ 3.06 to 30.6 µM) | 1 to 10 (≈ 3.06 to 30.6 µM) | > 10 | 1 to 10 (≈ 3.06 to 30.6 µM) | 1 to 10 (≈ 3.06 to 30.6 µM) |
| CCSc1nc2ccccc2c(=O)n1-c1ccccc1C(C)C [Compound Example 15, 2-Ethylsulfanyl-3-(2-isopropyl-phenyl)-3H-quinazolin-4-one] | 23.2 | 46.1 | > 10 | < 1 | < 1 | < 1 | 1 to 10 (≈ 3.08 to 30.8 µM) | < 1 | > 10 | < 1 | 1 to 10 (≈ 3.08 to 30.8 µM) | < 1 | > 10 | > 10 |
